Patent US12435091B2, “RNA-binding protein multimerization inhibitors and methods of use thereof” (THE UAB RESEARCH FOUNDATION, priority 2020, dated 2025)

Tests used:
[1] = system: microglial lysates (iNOS, HuR, KSRP, Arginase 1, YM1); experiment: Western blot analysis of microglial lysates; type: cell-based, mouse; conditions: 1.0 μM
[2] = system: inflammatory cytokines, chemokines and other mediators in primary microglial cells; experiment: qPCR of inflammatory mediator mRNAs in LPS-activated primary microglia; type: cell-based, mouse; conditions: 24 hours
Method: Cultured primary microglial cells isolated from neonatal mouse brain were treated with LPS to achieve activation. Cells were then treated with varying doses of SRI-42127 or vehicle for 24 hours. Total RNA was harvested from the cells and various mRNAs were quantified by qPCR as depicted in FIG. 12. Consistent with microglial activation, there were large inductions of inflammatory cytokines, chemokines and other mediators including IL-1β, IL-6, TNF-α, iNOS, IL-10, CXCL1, CXCL2, CXCL10, CCL2, CCL3, and CCL4. These inductions were as high as ˜3500-fold for IL-6.
Major chemokines CXCL1, CXCL2 and CCL3 were suppressed by more than 2-fold. There was a mixed effect on markers of M2-like markers, with TGF-β1 and YM1 increasing and IL-10 decreasing. As these inflammatory factors were secreted, they were quantified by ELISA in culture medium. The greatest effect was with IL-6 which was suppressed at a lower dose of SRI-42127 (1.7-fold at 0.1 μM) and nearly 10-fold at 1.0 μM. IL-1β and TNF-α were suppressed by 5-fold at 1.0 μM.

[3] = system: allodynia after spared nerve injury; experiment: spared nerve injury (sciatic nerve) model, mechanical sensitivity (Von Frey); type: in vivo; conditions: acute administration to DMSO-treated mice at day 7
Method: Wild-type male mice were subjected to a mid-thoracic contusion injury and then treated with SRI-42127 (15 mg/kg) every 8 hours for 4 days, starting 1 hour after injury. […] Not to be bound by theory, similar to spinal cord injury, chronic pain signaling is triggered by activation of microglia and astroglia in the spinal cord and production of inflammatory mediators (e.g. TNF-α, IL-1β, IL-6, INOS, CCL2) that induce hyperexcitation of sensory neurons in the dorsal horn. Mice underwent sciatic nerve lesioning to produce a spared nerve injury and then received SRI-42127 (15 mg/kg) or vehicle every 6 hours for 4 days (starting 1 h after injury). Mechanical sensitivity was assessed at day 7 post-injury. […] Following this test, a subset of mice in the DMSO-treated group was given an acute administration of SRI-42127 (or DMSO) and their mechanical sensitivity was tested at 30 minutes and 60 minutes post-administration. Acute treatment with SRI-42127 reversed allodynia in these mice for at least 60 minutes (p<0.01, FIG. 21, Panel D).

[4] = system: Bcl2 and Mcl1 mRNAs in LN229 cell line; experiment: Taqman quantification of Bcl2/18S and Mcl1/18S mRNA; type: cell-based; conditions: LN229, 10 uM for 24 hours
Method: (§1) The HuR-mRNA co-immunoprecipitation (IP) was performed by utilizing RiboCluster Profiler RIP-assay Kit (MBL International). The quantifications of Bcl2, and 18S transcripts were performed using Taqman technique with the following gene-specific probes: Hs00153350_m1, Hs03003631_g1, and Hs00766187_m1 (ThermoFisher Scientific) for Bcl2, 18S, and Mcl1, respectively.
(§2) mRNA isolation and purification from adherent cells were performed using RNeasy Mini Kit and QIAshredder columns (Qiagen, Valencia, CA).
(§3) HuR protein plays a significant role in the stabilization of the mRNAs of the anti-apoptotic Bcl2-family, which contributes to the protection of genetically unstable glioma cells from apoptosis. Therefore, the Bcl2 family was evaluated in the established and PDGx cell lines after cell treatment with SRI-41664 or SRI-42127 compounds. […] The protein levels of Bcl2 and Mcl1 were evaluated in the established U251 and PDGx XD456 glioma cell lines in the control (vehicle treatment) and after treatment with SRI-41664 or SRI-42127 compounds for 48 hours.

[5] = system: Bcl2 and Mcl1 mRNAs in PDGx XD456 cell line; experiment: as above; type: cell-based; conditions: XD456, 10 uM for 24 hours
Method: as §1, §2, §3

[6] = system: Bcl2 and Mcl1 mRNAs in U251 cell line; experiment: as above; type: cell-based; conditions: U251, 10 uM for 24 hours
Method: as §1, §2, §3

[7] = system: Bcl2 and Mcl1 mRNAs in U87 cell line; experiment: as above; type: cell-based; conditions: U87, 10 uM for 24 hours
Method: as §1, §2, §3

[8] = system: U251 cells expressing Fluc construct; experiment: control Fluc (full length luciferase) reporter assay in U251 cells; type: cell-based
Summary of the method: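 U251 cells carrying HuR fused to N- or C-terminal split firefly luciferase halves (dimer reporter) or full-length Fluc (control); constructs induced with doxycycline 0.75 ug/ml for 48 h. Compounds at various concentrations vs vehicle for 6 h. Luciferin-driven luminescence read; mean+SD.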

HuR = HuR localization (N/C ratio) in LPS-stimulated cultured astrocytes; type: cell-based; conditions: 0.5 μM for 24 hours
Method: First, the effect of SRI-42127 on HuR localization in astrocytes was studied. […] Quantification of the N/C HuR ratio using methodology described with microglia was 2.0. With LPS stimulation, there was translocation of HuR to the cytoplasm consistent with astrocyte activation and the N/C ratio decreased to 0.4 (P<0.001). When cells were treated with SRI-42127, this ratio was reversed back to pre-stimulation value (1.9). These findings indicate that SRI-42127 blocks cytoplasmic translocation of HuR in activated astrocytes.

Plasma protein binding = type: in vitro ADME
Source text: Plasma protein binding for Compound 19 was 96.44%.

CN(c1ccc2ncc(-c3ccc4cn[nH]c4c3)n2n1)C1CCOCC1 [Compound 19]
suppression of iNOS protein [1]: 4.2 fold | suppression of CCL3 mRNA [2]: more than 2 fold | suppression of CXCL1 mRNA [2]: more than 2 fold | suppression of CXCL2 mRNA [2]: more than 2 fold | suppression of IL-1β mRNA [2]: 5.9 fold | suppression of IL-6 mRNA [2]: 6.8 fold | suppression of TNF-α mRNA [2]: 1.6 fold | suppression of iNOS mRNA [2]: 8 fold | duration of reversal of allodynia after acute administration [3]: at least 60 minutes | decrease of Bcl2/18S mRNA ratio [4]: 95±2% | decrease of Mcl1/18S mRNA ratio [4]: 87±8% | decrease of Bcl2/18S mRNA ratio [5]: 96±2% | decrease of Mcl1/18S mRNA ratio [5]: 90±9% | decrease of Bcl2/18S mRNA ratio [6]: 96±2% | decrease of Mcl1/18S mRNA ratio [6]: 95±3% | decrease of Bcl2/18S mRNA ratio [7]: 95±2% | decrease of Mcl1/18S mRNA ratio [7]: 86±7% | decrease of luminescence signal from cells overexpressing the control Fluc construct ([8]; 6 hours, represents the cytotoxic effect): 26±9% | inhibition at 50 µM ([8]; Homo sapiens, U-251, 6 h, Concn 50 uM, read-out: Fluc Imax % Inh): 26% | N/C HuR ratio (HuR): 1.9 | fraction unbound (Plasma protein binding): 0.0356
